Experimental data reported in patent US10927078B2, “Modulators of indoleamine 2,3-dioxygenase” (GLAXOSMITHKLINE INTELLECTUAL PROPERTY DEVELOPMENT LIMITED, priority 2017, dated 2021).

Biological target: indoleamine 2, 3-dioxygenase (IDO1) (Homo sapiens, UniProt P14902)
Experiment: PBMC IDO1 assay (kynurenine via mass spectrometry)
Format: cell-based
Settings: not given
Procedure: Compounds of the present invention were tested via high-throughput cellular assays utilizing detection of kynurenine via mass spectrometry and cytotoxicity as end-points. For the mass spectrometry and cytotoxicity assays, human peripheral blood mononuclear cells (PBMC) (PB003F; AllCells®, Alameda, Calif.) were stimulated with human interferon-γ (IFN-γ) (Sigma-Aldrich Corporation, St. Louis, Mo.) and lipopolysaccharide from Salmonella minnesota (LPS) (Invivogen, San Diego, Calif.) to induce the expression of indoleamine 2, 3-dioxygenase (IDO1). Compounds with IDO1 inhibitory properties decreased the amount of kynurenine produced by the cells via the tryptophan catabolic pathway. Cellular toxicity due to the effect of compound treatment was measured using CellTiter-Glo® reagent (CTG) (Promega Corporation, Madison, Wis.), which is based on luminescent detection of ATP, an indicator of metabolically active cells.
In preparation for the assays, test compounds were serially diluted 3-fold in DMSO from a typical top concentration of 5 mM and plated at 0.5 μL in 384-well, polystyrene, clear bottom, tissue culture treated plates with lids (Greiner Bio-One, Kremsmünster, Austria) to generate 11-point dose response curves. Low control wells (0% kynurenine or 100% cytotoxicity) contained either 0.5 μL of DMSO in the presence of unstimulated (-IFN-γ/-LPS) PBMCs for the mass spectrometry assay or 0.5 μL of DMSO in the absence of cells for the cytotoxicity assay, and high control wells (100% kynurenine or 0% cytotoxicity) contained 0.5 μL of DMSO in the presence of stimulated (+IFN-γ/+LPS) PBMCs for both the mass spectrometry and cytotoxicity assays.
Frozen stocks of PBMCs were washed and recovered in RPMI 1640 medium (Thermo Fisher Scientific, Inc., Waltham, Mass.) supplemented with 10% v/v heat-inactivated fetal bovine serum (FBS) (Thermo Fisher Scientific, Inc., Waltham, Mass.), and 1× penicillin-streptomycin antibiotic solution (Thermo Fisher Scientific, Inc., Waltham, Mass.). The cells were diluted to 1,000,000 cells/mL in the supplemented RPMI 1640 medium. 50 μL of either the cell suspension, for the mass spectrometry assay, or medium alone, for the cytotoxicity assay, were added to the low control wells, on the previously prepared 384-well compound plates, resulting in 50,000 cells/well or 0 cells/well respectively. IFN-γ and LPS were added to the remaining cell suspension at final concentrations of 100 ng/ml and 50 ng/ml respectively, and 50 μL of the stimulated cells were added to all remaining wells on the 384-well compound plates. The plates, with lids, were then placed in a 37° C., 5% CO2 humidified incubator for 2 days.
Following incubation, the 384-well plates were removed from the incubator and allowed to equilibrate to room temperature for 30 minutes. For the cytotoxicity assay, CellTiter-Glo® was prepared according to the manufacturer's instructions, and 40 μL were added to each plate well. After a twenty minute incubation at room temperature, luminescence was read on an EnVision® Multilabel Reader (PerkinElmer Inc., Waltham, Mass.). For the mass spectrometry assay, 10 μL of supernatant from each well of the compound-treated plates were added to 40 μL of acetonitrile, containing 10 μM of an internal standard for normalization, in 384-well, polypropylene, V-bottom plates (Greiner Bio-One, Kremsmünster, Austria) to extract the organic analytes. Following centrifugation at 2000 rpm for 10 minutes, 10 μL from each well of the acetonitrile extraction plates were added to 90 μL of sterile, distilled H2O in 384-well, polypropylene, V-bottom plates for analysis of kynurenine and the internal standard on the RapidFire 300 (Agilent Technologies, Santa Clara, Calif.) and 4000 QTRAP MS (SCIEX, Framingham, Mass.). MS data were integrated using Agilent Technologies' RapidFire Integrator software, and data were normalized for analysis as a ratio of kynurenine to the internal standard. […]

Sequence of indoleamine 2, 3-dioxygenase (IDO1) (P14902 whole entry): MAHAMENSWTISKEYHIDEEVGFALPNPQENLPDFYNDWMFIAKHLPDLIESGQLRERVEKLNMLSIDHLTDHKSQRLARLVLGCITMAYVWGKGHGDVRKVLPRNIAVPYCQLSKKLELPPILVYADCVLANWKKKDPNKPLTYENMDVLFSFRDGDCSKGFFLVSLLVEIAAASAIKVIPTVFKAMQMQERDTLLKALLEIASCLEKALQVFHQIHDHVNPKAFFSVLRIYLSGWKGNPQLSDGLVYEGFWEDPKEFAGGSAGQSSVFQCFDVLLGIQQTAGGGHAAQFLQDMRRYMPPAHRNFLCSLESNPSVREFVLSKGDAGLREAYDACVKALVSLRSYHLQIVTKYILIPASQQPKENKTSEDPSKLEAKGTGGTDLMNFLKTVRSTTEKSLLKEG

SMILES | IC50 [nM]
Cc1ccnc(C)c1OC(=O)N1CCC(C(CC(C)C)NC(=O)c2ccc(Cl)cc2)CC1 (stereo not drawn) [Example 3, 2,4-dimethylpyridin-3-yl 4-(1-(4-chlorobenzamido)-3-methylbutyl)piperidine-1-carboxylate] | 1
CC(C)CC(NC(=O)c1ccc(Cl)cc1)C1CCN(C(=O)Oc2cccnc2C#N)CC1 (stereo not drawn) [Example 5, 2-cyanopyridin-3-yl 4-{1-[(4-chlorophenyl)formamido]-3-methylbutyl}piperidine-1-carboxylate] | 1.58
Cc1ncccc1OC(=O)N1CCC(C(CC(C)C)NC(=O)c2ccc(Cl)cc2)CC1 (stereo not drawn) [Example 6, 2-methylpyridin-3-yl 4-{1-[(4-chlorophenyl)formamido]-3-methylbutyl}piperidine-1-carboxylate] | 1.58
COc1ncccc1OC(=O)N1CCC(C(CC(C)C)NC(=O)c2ccc(Cl)cc2)CC1 (stereo not drawn) [Example 10, 2-methoxypyridin-3-yl 4-{1-[(4-chlorophenyl)formamido]-3-methylbutyl}piperidine-1-carboxylate] | 2.51
Cc1ncccc1OC(=O)N1CCC([C@H](NC(=O)c2ccc(Cl)cc2)c2ccccc2)CC1 [Example 14, 2-methylpyridin-3-yl 4-[(S)-[(4-chlorophenyl)formamido](phenyl)methyl]piperidine-1-carboxylate] | 2.51
Cc1ncccc1OC(=O)N1CCC(C(CC(C)C)NC(=O)c2ccc(F)cc2)CC1 (stereo not drawn) [Example 18, 2-methylpyridin-3-yl 4-{1-[(4-fluorophenyl)formamido]-3-methylbutyl}piperidine-1-carboxylate] | 3.16
CC(C)CC(NC(=O)c1ccc(F)cc1)C1CCN(C(=O)Oc2cccnc2F)CC1 (stereo not drawn) [Example 22, 2-fluoropyridin-3-yl 4-{1-[(4-fluorophenyl)formamido]-3-methylbutyl}piperidine-1-carboxylate] | 3.98

Same assay, conditions: human PBMC stimulated with IFN-γ and LPS, 2 days, kynurenine by mass spectrometry; recorded as pIC50; read-out: PBMC PXC50_ (converted)

IC50 [nM] | SMILES
12.6 | Cc1ccc(C(=O)NC(C2CC2)C2CCN(C(=O)Oc3c(C)ncnc3C)CC2)s1 (stereo in doubt) [Example 113, (S)-4,6-dimethylpyrimidin-5-yl 4-(cyclopropyl(5-methylthiophene-2-carboxamido)methyl)piperidine-1-carboxylate]
50.1 | O=C(NC(C1CC1)C1CCN(C(=O)Oc2cncnc2)CC1)c1ccc(Cl)s1 (stereo in doubt) [Example 115, (S)-pyrimidin-5-yl 4-((5-chlorothiophene-2-carboxamido)(cyclopropyl)methyl)piperidine-1-carboxylate]
2 | Cc1nccc(OC(=O)N2CCC([C@H](NC(=O)c3ccc(Cl)s3)C3CC3)CC2)c1C [Example 7, 2,3-dimethylpyridin-4-yl 4-[(R)-[(5-chlorothiophen-2-yl)formamido](cyclopropyl)methyl]piperidine-1-carboxylate]
2.51 | Cc1c(F)cccc1OC(=O)N1CCC(C(CC(C)C)NC(=O)c2ccc(F)cc2)CC1 (stereo not drawn) [Example 9, 3-fluoro-2-methylphenyl 4-{1-[(4-fluorophenyl)formamido]-3-methylbutyl}piperidine-1-carboxylate]
2.51 | CC(C)CC(NC(=O)c1ccc(F)cc1)C1CCN(C(=O)Oc2cccc(F)c2Cl)CC1 (stereo not drawn) [Example 11, 2-chloro-3-fluorophenyl 4-{1-[(4-fluorophenyl)formamido]-3-methylbutyl}piperidine-1-carboxylate]
2.51 | COc1c(F)cccc1OC(=O)N1CCC(C(CC(C)C)NC(=O)c2ccc(F)cc2)CC1 (stereo not drawn) [Example 13, 3-fluoro-2-methoxyphenyl 4-{1-[(4-fluorophenyl)formamido]-3-methylbutyl}piperidine-1-carboxylate]
3.98 | Cc1nccc(OC(=O)N2CCC([C@H](NC(=O)c3ccc(Cl)cc3)c3ccccc3)CC2)c1C [Example 20, 2,3-dimethylpyridin-4-yl 4-[(S)-[(4-chlorophenyl)formamido](phenyl)methyl]piperidine-1-carboxylate]
3.98 | O=C(N[C@H](C1CC1)C1CCN(C(=O)Oc2ccccc2)CC1)c1ccc(Cl)s1 [Example 23, phenyl 4-[(R)-[(5-chlorothiophen-2-yl)formamido](cyclopropyl)methyl]piperidine-1-carboxylate]
5.01 | CC(C)CC(NC(=O)c1ccc(Cl)cc1)C1CCN(C(=O)Oc2ccccc2)CC1 (stereo not drawn) [Example 26, phenyl 4-{1-[(4-chlorophenyl)formamido]-3-methylbutyl}piperidine-1-carboxylate]
5.01 | Cc1cccc(OC(=O)N2CCC(C(CC(C)C)NC(=O)c3ccc(F)cc3)CC2)c1F (stereo not drawn) [Example 28, 2-fluoro-3-methylphenyl 4-{1-[(4-fluorophenyl)formamido]-3-methylbutyl}piperidine-1-carboxylate]
5.01 | Cc1cnccc1OC(=O)N1CCC(C(CC(C)C)NC(=O)c2ccc(Cl)cc2)CC1 (stereo not drawn) [Example 29, 3-methylpyridin-4-yl 4-{1-[(4-chlorophenyl)formamido]-3-methylbutyl}piperidine-1-carboxylate]

More lines, now with the values behind:

SMILES | IC50 [nM]
Cc1nccc(OC(=O)N2CCC([C@H](NC(=O)c3ccc(Cl)s3)c3ccccc3)CC2)c1C [Example 1, (S)-2,3-dimethylpyridin-4-yl 4-((5-chlorothiophene-2-carboxamido)(phenyl)methyl)piperidine-1-carboxylate] | 0.631
CC(C)C[C@@H](NC(=O)c1ccc(Cl)s1)C1CCN(C(=O)Oc2ccccc2)CC1 [Example 8, phenyl 4-[(1R)-1-[(5-chlorothiophen-2-yl)formamido]-3-methylbutyl]piperidine-1-carboxylate] | 2
CC(C)CC(NC(=O)c1ccc(F)cc1)C1CCN(C(=O)Oc2cccc(F)c2C#N)CC1 (stereo not drawn) [Example 12, 2-cyano-3-fluorophenyl 4-{1-[(4-fluorophenyl)formamido]-3-methylbutyl}piperidine-1-carboxylate] | 2.51
Cc1ncnc(C)c1OC(=O)N1CCC(C(CC(C)C)NC(=O)c2ccc(Cl)cc2)CC1 (stereo not drawn) [Example 15, 4,6-dimethylpyrimidin-5-yl 4-{1-[(4-chlorophenyl)formamido]-3-methylbutyl}piperidine-1-carboxylate] | 2.51
CC(C)CC(NC(=O)c1ccc(Cl)s1)C1CCN(C(=O)Oc2ccccc2)CC1 (stereo not drawn) [Example 16, phenyl 4-{1-[(5-chlorothiophen-2-yl)formamido]-3-methylbutyl}piperidine-1-carboxylate] | 3.16
Cc1c(F)cccc1OC(=O)N1CCC([C@H](NC(=O)c2ccc(Cl)s2)C2CC2)CC1 [Example 19, 3-fluoro-2-methylphenyl 4-[(R)-[(5-chlorothiophen-2-yl)formamido](cyclopropyl)methyl]piperidine-1-carboxylate] | 3.16
CC(C)C[C@@H](NC(=O)c1ccc(Cl)cc1)C1CCN(C(=O)Oc2ccccc2)CC1 [Example 21, phenyl 4-[(1R)-1-[(4-chlorophenyl)formamido]-3-methylbutyl]piperidine-1-carboxylate] | 3.98
CC(C)C[C@@H](NC(=O)c1ccccc1)C1CCN(C(=O)Oc2ccccc2)CC1 [Example 25, phenyl 4-[(1R)-3-methyl-1-(phenylformamido)butyl]piperidine-1-carboxylate] | 5.01
CC(C)C[C@@H](NC(=O)c1ccc(F)cc1)C1CCN(C(=O)Oc2ccccc2)CC1 [Example 27, phenyl 4-[(1R)-1-[(4-fluorophenyl)formamido]-3-methylbutyl]piperidine-1-carboxylate] | 5.01
